Laboratory results from article PMC4526861, “Inhibition of protein kinase C by isojacareubin suppresses hepatocellular carcinoma metastasis and induces apoptosis in vitro and in vivo” (Scientific Reports, 2015).

Key:
[1] = system: phosphorylated c-Raf, MEK1/2 and ERK1/2; assay: Western blot of MAPK phosphorylation, QGY-7703; assay type: cell-based, human; details: QGY-7703, 24 h
Description: Additional PKC targeting effects involved in the early response of major MAPK phosphorylation and the late response of HCC cell invasion and apoptosis were investigated. After 24 h of treatment with ISJ at the indicated concentrations, the total protein lysates from HCC cells were analyzed (Fig. 6). ISJ inhibited the phosphorylated, activated forms of c-Raf, MEK1/2 and ERK1/2 in the MAPK signaling pathway in both HepG2 and QGY-7703 cells (Fig. 6a). […] In contrast, E-cadherin expression was elevated, specifically at the highest concentration of ISJ (20 μM) (Fig. 6b). In addition, we analyzed several representative apoptotic proteins, including cleaved PARP (c-PARP), p53 and p21. […] These findings support our hypothesis that ISJ restrains HCC cell metastasis and induces HCC cell apoptosis by specifically inhibiting PKC.
The total membrane and cytosolic proteins were extracted using a Membrane and Cytosol Protein Extraction Kit (Beyotime). Extracted proteins from cells or animal tissues were separated by SDS-PAGE and transferred to polyvinylidene difluoride (PVDF) membranes (Bio-Rad). The PVDF membranes were blocked with 5% nonfat milk and incubated with primary antibodies overnight, followed by incubation with a donkey anti-rabbit or anti-mouse secondary antibody (IRDye 800, LI-COR, Biosciences). […] The intensity was quantitative with Quantity One software (Bio-Rad). […]

HepG2 cells = assay: Apoptosis assay, Annexin V-FITC/PI flow cytometry; assay type: cell-based, human; details: 48 h
Description: To further explore the potential mechanisms of the antiproliferative effects induced by compound 7 and ISJ, Annexin V-FITC/PI double staining was performed to quantify cellular apoptosis by flow cytometry. HepG2 cells were cultured for 48 h in the absence or presence of compound 7 or ISJ at different concentrations (5 or 15 μM).
HepG2 cells were seeded in six-well plates (5 × 10^5 cells/mL) for 24 h and then treated with various amounts of the compounds or 1% DMSO (as control). After 48 h, the cells floating in the medium were collected, and the adherent cells were detached with 0.05% trypsin, washed twice with cold PBS, and centrifuged at 1000 rpm for 5 min at 4 °C. Subsequently, HepG2 cells were gently resuspended in the binding buffer. Thereafter, the cells were stained using the Annexin V-FITC/PI apoptosis detection kit (BD Biosciences, San Jose, CA, USA). After incubation at room temperature for 15 min in the dark, the apoptotic cells were immediately analyzed by flow cytometry (FACS Calibur).

QGY-7703 cells = assay: Cell proliferation assay (CCK-8), QGY-7703; assay type: cell-based, human
Description: The human HCC cell lines QGY-7703, SMMC-7721 and HepG2 and the liver cell line QSG-7701 were supplied by the Cell Resource Center, Institute of Life Sciences, Chinese Academy of Medical Science. QGY-7703, SMMC-7721 and QSG-7701 cells were cultured in 1640 medium (Gibco), and HepG2 cells were cultured in DMEM medium (Gibco) at 37 °C in moist air supplemented with 5% CO2. All media were supplemented with 10% fetal bovine serum (FBS) and 100 Units/mL of penicillin/streptomycin.
The cell viability assay was performed as previously reported using a Cell Counting Kit-8 (CCK-8; Dojindo, Kumamoto, Japan)[33][34]. The relative cell viability was presented as % inhibition and calculated using the following formula: […]

HepG2 xenografts = assay: Antitumor activity in vivo, HepG2 xenograft; set-up: species or system BALB/c-nu nude mice; details: 5 mg/kg, tail vein injection every other day for two weeks
Description: Four-week-old male BALB/c-nu nude mice (15–20 g) were obtained from the Shanghai SLAC Laboratory Animal Co., Ltd. (Shanghai, China). The animals were maintained under specific pathogen-free conditions with food and water supplied ad libitum in the Laboratory Animal Center of the Second Military Medical University. All animal experiments were carried out in accordance with the Guide for the Care and Use of Laboratory Animals of the National Institutes of Health and were approved by the Committee on the Ethics of Animal Experiments of the Second Military Medical University, China.
HepG2 cells were harvested and resuspended in PBS. A total of 5 × 10^6 cells were subcutaneously injected into the right flank. Tumor volume was calculated using the following formula: V = (L × W^2)/2, where L is the length and W is the width of the tumor nodules measured with vernier calipers. Once the volume of the tumors reached 75–100 mm^3, the mice were randomly divided into three groups (n = 5). The mice were treated every other day for two weeks with tail vein injections of either vehicle (5% ethanol and 2.5% polyethylene glycol in saline), compound 7, or ISJ (5 mg/kg in the vehicle). Body weights were measured before each drug injection. After the 15th day, the mice were euthanized, and the tumors were isolated, weighed and photographed.

Isojacareubin [ISJ]
phosphorylated, activated forms of c-Raf, MEK1/2 and ERK1/2 [1]: inhibited
number of apoptotic cells compared to the control group (HepG2 cells; 5 μM): did not alter
percentage of apoptotic cells (HepG2 cells; 15 μM): increased significantly
Inhibitory Ratio (%) QGY-7703 (QGY-7703 cells; 50 μM): 83.69%
IC50 (QGY-7703 cells; mean ± SD, at least three independent experiments): 4.65 ± 0.32 µM
reduction of tumor weight compared to controls (HepG2 xenografts): 74.1%
